According to patent US20120214822A1 (ASTRAZENECA AB, priority 2007, published 2012):
Counter-ions that a name gives are not always drawn.

Molecular target: human active recombinant p38α-6His tagged (Homo sapiens, UniProt Q16539)
Assay: P38 Alpha Enzyme Assay (AlphaScreen, biotinylated-ATF2 substrate);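 note: 0.5 nM final p38α, reaction started with ATP and run 45 min at 37 °C, phospho-ATF2 read by antibody-based AlphaScreen, background wells quenched with EDTA before ATP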
Assay type: biochemical
Settings: p38 alpha enzyme inhibition; means of replicate determinations; 4 h pre-incubation at 37° C.; SD of assay 0.2-0.3 log units

human active recombinant p38α-6His tagged, sequence (Q16539 whole entry): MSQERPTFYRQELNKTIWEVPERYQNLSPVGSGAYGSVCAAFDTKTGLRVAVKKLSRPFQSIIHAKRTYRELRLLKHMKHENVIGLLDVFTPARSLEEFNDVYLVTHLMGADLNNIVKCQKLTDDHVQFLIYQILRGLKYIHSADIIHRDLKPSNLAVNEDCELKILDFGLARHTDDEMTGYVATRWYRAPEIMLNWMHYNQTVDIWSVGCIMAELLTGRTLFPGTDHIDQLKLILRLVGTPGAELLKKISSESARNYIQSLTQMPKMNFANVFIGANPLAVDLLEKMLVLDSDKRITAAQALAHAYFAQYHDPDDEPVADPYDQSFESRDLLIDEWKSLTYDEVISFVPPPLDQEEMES

| Molecule | pIC50 | IC50 |
| --- | --- | --- |
| Cc1ccc(C(=O)NC2CC2)cc1-n1ccnc(N[C@@H](c2ccccc2)[C@@H](C)CN2CCC[C@@H](O)C2)c1=O [Example 186, N-Cyclopropyl-3-[3-[[(1R,2S)-3-[(3R)-3-hydroxy-1-piperidinyl]-2-methyl-1-phenylpropyl]amino]-2-oxo-1(2H)-pyrazinyl]-4-methyl-benzamide] | 9 |  |
| Cc1ccc(C(=O)NC2CC2)cc1-n1ccnc(N[C@@H](c2ccccc2)[C@@H](C)CN2CCC[C@H](O)C2)c1=O [Example 185, N-Cyclopropyl-3-[3-[[(1R,2S)-3-[(3S)-3-hydroxy-1-piperidinyl]-2-methyl-1-phenylpropyl]amino]-2-oxo-1(2H)-pyrazinyl]-4-methyl-benzamide] | 9.1 |  |
| Cc1c(F)cc(C(=O)NC2CC2)cc1-n1ccnc(NC2(c3ccccc3OCCNCCO)CC2)c1=O [Example 260, N-Cyclopropyl-3-fluoro-5-[3-[[1-[2-[2-[(2-hydroxyethyl)amino]ethoxy]phenyl]cyclopropyl]amino]-2-oxo-1(2H)-pyrazinyl]-4-methyl-benzamide] | 10.3 |  |
| Cc1ccc(C(=O)NC2CC2)cc1-n1ccnc(NC(C)(C)c2ccccc2OCCN2CCN(C)CC2)c1=O [Example 202, N-Cyclopropyl-4-methyl-3-[3-[[1-methyl-1-[2-[2-(4-methyl-1-piperazinyl)ethoxy]phenyl]ethyl]amino]-2-oxo-1(2H)-pyrazinyl]-benzamide] | 9.2 |  |
| CCc1ccc(C(=O)NC2CC2)cc1-n1ccnc(NC(C)(C)c2ccccc2OCCN)c1=O [Example 292, 3-[3-({1-[2-(2-Aminoethoxy)phenyl]-1-methylethyl}amino)-2-oxopyrazin-1(2H)-yl]-N-cyclopropyl-4-ethylbenzamide] | 8.4 |  |
| COc1ccccc1C1CCCN1c1nccn(-c2cc(C(=O)NC3CC3)ccc2C)c1=O (stereo not drawn) [Example 97, N-Cyclopropyl-3-[3-[2-(2-methoxyphenyl)-1-pyrrolidinyl]-2-oxo-1(2H)-pyrazinyl]-4-methyl-benzamide] | 8.7 |  |
| Cc1c(F)cc(C(=O)NC2CC2)cc1-n1ccnc(NC(C)(C)c2ccccc2OCCNCC(=O)O)c1=O [Example 312, N-(2-{2-[1-({4-[5-(Cyclopropylcarbamoyl)-3-fluoro-2-methylphenyl]-3-oxo-3,4-dihydropyrazin-2-yl}amino)-1-methylethyl]phenoxy}ethyl)glycine] | 9.8 |  |
| COCCNCCOc1ccccc1C(C)(C)Nc1nccn(-c2cc(C(=O)NC3CC3)cc(F)c2C)c1=O [Example 255, N-Cyclopropyl-3-fluoro-5-[3-[[1-[2-[2-[(2-methoxyethyl)amino]ethoxy]phenyl]-1-methylethyl]amino]-2-oxo-1(2H)-pyrazinyl]-4-methyl-benzamide] | 10.2 |  |
| Cc1ccc(C(=O)NC2CC2)cc1-n1ccnc(NCc2ccccc2Cl)c1=O [Example 129, 3-[3-[[(2-Chlorophenyl)methyl]amino]-2-oxo-1(2H)-pyrazinyl]-N-cyclopropyl-4-methyl-benzamide] | 7.7 |  |
| Cc1ccc(C(=O)NC2CC2)cc1-n1ccnc(NCc2cccs2)c1=O [Example 31, N-Cyclopropyl-4-methyl-3-[2-oxo-3-[(2-thienylmethyl)amino]-1(2H)-pyrazinyl]-benzamide] | 7 |  |
| CNCCOc1ccccc1C(C)(C)Nc1nccn(-c2cc(C(=O)NC3CC3)ccc2Cl)c1=O [Example 330, 4-Chloro-N-cyclopropyl-3-[3-[(1-methyl-1-{2-[2-(methylamino)ethoxy]phenyl}ethyl)amino]-2-oxopyrazin-1(2H)-yl]benzamide] | 9.4 |  |
| CNCCOc1ccccc1C(C)(C)Nc1nccn(-c2cc(C(=O)NC3CC3)cc(F)c2C)c1=O [Example 169, N-Cyclopropyl-3-fluoro-4-methyl-5-[3-[[1-methyl-1-[2-[2-(methylamino)ethoxy]phenyl]ethyl]amino]-2-oxo-1(2H)-pyrazinyl]-benzamide] | 9.9 |  |
| CCOc1ccccc1CNc1nccn(-c2cc(C(=O)NC3CC3)ccc2C)c1=O [Example 78, N-Cyclopropyl-3-[3-[[(2-ethoxyphenyl)methyl]amino]-2-oxo-1(2H)-pyrazinyl]-4-methyl-benzamide] | 7.8 |  |
| Cc1ccc(C(=O)NC2CC2)cc1-n1ccnc(NC(C)(C)c2ccccc2OCCN2CCNCC2)c1=O [Example 199, N-Cyclopropyl-4-methyl-3-[3-[[1-methyl-1-[2-[2-(1-piperazinyl)ethoxy]phenyl]ethyl]amino]-2-oxo-1(2H)-pyrazinyl]-benzamide] | 9.1 |  |
| CNCCOc1ccccc1C(C)(C)Nc1nccn(-c2cc(C(=O)NOC)cc(F)c2C)c1=O [Example 316, 3-Fluoro-N-methoxy-4-methyl-5-{3-[(1-methyl-1-{2-[2-(methylamino)ethoxyl]phenyl}ethyl)amino]-2-oxopyrazin-1(2H)-yl}benzamide] | 10.4 |  |
| Cc1ccc(C(=O)NC2CC2)cc1-n1ccnc(SCc2ccccc2)c1=O [Example 118] | 7.3 |  |
| Cc1ccccc1[C@H](Nc1nccn(-c2cc(C(=O)NC3CC3)ccc2C)c1=O)[C@@H](C)CN1CCCC1 [Example 275, N-Cyclopropyl-3-[3-[[(1R,2S)-1-(2-methylphenyl)-2-methyl-3-(1-pyrrolidinyl)propyl]amino]-2-oxo-1(2H)-pyrazinyl]-4-methyl-benzamide] | 8.6 |  |

| Molecule | pIC50 | IC50 |
| --- | --- | --- |
| Cc1ccc(C(=O)NC2CC2)cc1-n1ccnc(N[C@@H](c2ccccc2)[C@@H](C)CN2CCNC[C@H]2C)c1=O [Example 187, N-Cyclopropyl-4-methyl-3-[3-[[(1R,2S)-2-methyl-3-[(2R)-2-methyl-1-piperazinyl]-1-phenylpropyl]amino]-2-oxo-1(2H)-pyrazinyl]-benzamide] | 9.8 |  |
| CNCCOc1ccccc1C1(Nc2nccn(-c3cc(C(=O)NC4CC4)ccc3C)c2=O)CC1 [Example 167, N-Cyclopropyl-4-methyl-3-[3-[[1-[2-[2-(methylamino)ethoxy]phenyl]cyclopropyl]amino]-2-oxo-1(2H)-pyrazinyl]-benzamide] | 9.7 |  |
| CCc1ccc(C(=O)NC2CC2)cc1-n1ccnc(NC(C)(C)c2ccccc2OCCNC[C@H](C)O)c1=O [Example 289, N-Cyclopropyl-4-ethyl-3-[3-({1-[2-(2-{[(2S)-2-hydroxypropyl]amino}ethoxy)phenyl]-1-methylethyl}amino)-2-oxopyrazin-1(2H)-yl]benzamide] | 8.9 |  |
| CNCCCOc1ccccc1[C@@H]1CCCN1c1nccn(-c2cc(C(=O)NC3CC3)ccc2C)c1=O (single isomer, unassigned) [Example 326] |  | 25.1 nM |
| CONC(=O)c1ccc(C)c(-n2ccnc(N[C@@H](c3ccccc3)[C@@H](C)CN3CCCC3)c2=O)c1 [Example 159, N-Methoxy-4-methyl-3-[3-[[(1R,2S)-2-methyl-1-phenyl-3-(1-pyrrolidinyl)propyl]amino]-2-oxo-1(2H)-pyrazinyl]-benzamide] | 9.6 |  |
| 4-Methyl-3-[3-[[[4-(4-methyl-1-piperazinyl)phenyl]methyl]amino]-2-oxo-1(2H)-pyrazinyl]-N-(1-methylpropyl)-benzamide [Example 14] | 6 |  |
| Cc1ccc(C(=O)NC2CC2)cc1-n1ccnc(N[C@H](c2ccccc2)C2CCNCC2)c1=O [Example 103, N-Cyclopropyl-4-methyl-3-[2-oxo-3-[[(S)-phenyl-4-piperidinylmethyl]amino]-1(2H)-pyrazinyl]-benzamide trifluoroacetate] | 6.1 |  |
| Cc1ccc(C(=O)NC2CC2)cc1-n1ccnc(N[C@@H](c2ccccc2)[C@@H](C)CN(C)CCN(C)C)c1=O [Example 156, N-Cyclopropyl-3-[3-[[(1R,2S)-3-[[2-(dimethylamino)ethyl]methylamino]-2-methyl-1-phenylpropyl]amino]-2-oxo-1(2H)-pyrazinyl]-4-methyl-benzamide] | 8.9 |  |
| Cc1ccc(C(=O)NC2CC2)cc1-n1ccnc(NC2(c3ccccc3OCCNC(C)C)CC2)c1=O [Example 234, N-Cyclopropyl-4-methyl-3-[3-[[1-[2-[2-[(1-methylethyl)amino]ethoxy]phenyl]cyclopropyl]amino]-2-oxo-1(2H)-pyrazinyl]-benzamide] | 10.3 |  |
| Cc1ccc(C(=O)NC2CC2)cc1-n1ccnc(NCc2ccccn2)c1=O [Example 23, N-Cyclopropyl-4-methyl-3-[2-oxo-3-[(2-pyridinylmethyl)amino]-1(2H)-pyrazinyl]-benzamide] | 6.9 |  |
| Cc1ccc(C(=O)NC2CC2)cc1-n1ccnc(N2CCN(C)CC2)c1=O [Example 2, N-Cyclopropyl-4-methyl-3-[3-(4-methyl-1-piperazinyl)-2-oxo-1(2H)-pyrazinyl]-benzamide] | 6.4 |  |
| CNCCOc1ccc(F)cc1C1(Nc2nccn(-c3cc(C(=O)NC4CC4)cc(F)c3C)c2=O)CC1 [Example 281, N-Cyclopropyl-3-fluoro-5-{3-[(1-{5-fluoro-2-[2-(methylamino)ethoxy]phenyl}cyclopropyl)amino]-2-oxopyrazin-1(2H)-yl}-4-methylbenzamide] | 10.4 |  |
| Cc1ccc(C(=O)NC2CC2)cc1-n1ccnc(N[C@@H](c2ccccc2)[C@@H](C)CN2CC[C@H](O)C2)c1=O [Example 190, N-Cyclopropyl-3-[3-[[(1R,2S)-3-[(3S)-3-hydroxy-1-pyrrolidinyl]-2-methyl-1-phenylpropyl]amino]-2-oxo-1(2H)-pyrazinyl]-4-methyl-benzamide] | 9 |  |
| CC(C)(Nc1nccn(-c2cc(C(=O)NC3CC3)ccc2Cl)c1=O)c1ccccc1OCCN [Example 334, 3-[3-({1-[2-(2-Aminoethoxy)phenyl]-1-methylethyl}amino)-2-oxopyrazin-1(2H)-yl]-4-chloro-N-cyclopropylbenzamide] | 9.3 |  |
| Cc1ccc(C(=O)NC2CC2)cc1-n1ccnc(NCc2ccccc2C(F)(F)F)c1=O [Example 79, N-Cyclopropyl-4-methyl-3-[2-oxo-3-[[[2-(trifluoromethyl)phenyl]methyl]amino]-1(2H)-pyrazinyl]-benzamide] | 7.7 |  |
| CCNCCOc1ccc(F)cc1C1(Nc2nccn(-c3cc(C(=O)NC4CC4)ccc3C)c2=O)CC1 [Example 280, N-Cyclopropyl-3-[3-[[1-[2-[2-(ethylamino)ethoxy]-5-fluorophenyl]cyclopropyl]amino]-2-oxo-1(2H)-pyrazinyl]-4-methyl-benzamide] | 10.1 |  |
